# Source: patent US12194051B2, “5-azaindazole derivatives as adenosine receptor antagonists” (MERCK PATENT GMBH, priority 2018, dated 2025)
# Experiments:
# Assay type in all cases: cell-based
# human A2B receptors = biological target: T1, human A2B receptors (Homo sapiens, UniProt P29275); experiment: Inhibition of human A2B receptor in recombinant HEK293 cells, cAMP quantification (HTRF); settings: read-out: A2B (Category)
# T1 construct: expressed in transfected cells; host or cells: HEK293
# T1 sequence (P29275 1-332): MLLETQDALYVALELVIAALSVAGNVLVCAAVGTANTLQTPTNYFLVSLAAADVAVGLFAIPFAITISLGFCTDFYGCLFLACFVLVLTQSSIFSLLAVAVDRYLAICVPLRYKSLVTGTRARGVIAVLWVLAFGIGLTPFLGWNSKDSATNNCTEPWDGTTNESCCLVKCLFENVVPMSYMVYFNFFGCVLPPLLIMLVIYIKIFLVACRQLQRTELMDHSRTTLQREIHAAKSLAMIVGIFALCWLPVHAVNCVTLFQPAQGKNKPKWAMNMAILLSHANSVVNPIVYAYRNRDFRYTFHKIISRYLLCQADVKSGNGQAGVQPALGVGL
# Summary of the method: (§1)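 Following a 15 min incubation, HTRF detection reagents are added and intracellular cAMP is quantified.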
# Human T cell = Human T cell IL-2; settings: human T cells
# mouse Pan T cells = experiment: Mouse T cell IL-2 rescue from NECA inhibition (ELISA); settings: 24 h
# From the text: Adenosine (Ado) in tumor microenvironment can inhibit T cell activity by signaling through A2A receptors and suppress cytokine secretion by T cells. […] Potential A2A antagonists or A2A/A2B dual antagonists can rescue T cells from this inhibition. Herein, we describe the in vitro system we established using Pan T cells from mouse spleens to screen potential A2A antagonists or A2A/A2B dual antagonists for their activity. The method described involves the use of CD3/CD28 pre-coated beads to stimulate Pan T cells purified from mouse splenocytes, combined with the addition of A2A agonist along with potential A2A or A2A/A2B dual antagonists to evaluate potentiation of T cell cytokine production.
# Briefly, mouse Pan T cells are purified from spleens of BALB/c mice using Pan T cell isolation kit Mouse II (MACS Miltenyi biotech Cat # Order no. 130-095-130) according to manufacturer's protocol. […] After 24 h incubation IL-2 levels in the supernatants are measured by ELISAs according to manufacturer's protocol (R&D systems Cat # DY402 (IL-2)). Once the concentrations are calculated, the difference of cytokine concentration of DMSO control and agonist alone control is calculated and the percentage of rescue by each concentration of antagonist is calculated by using Microsoft Excel. […]
# human A2A receptors = biological target: T2, human A2A receptors (Homo sapiens, UniProt P29274); experiment: Inhibition of human A2A receptor in recombinant HEK293 cells, cAMP quantification (HTRF); settings: read-out: A2A (Category)
# T2 construct: expressed in transfected cells; host or cells: HEK293
# T2 sequence (P29274 whole entry): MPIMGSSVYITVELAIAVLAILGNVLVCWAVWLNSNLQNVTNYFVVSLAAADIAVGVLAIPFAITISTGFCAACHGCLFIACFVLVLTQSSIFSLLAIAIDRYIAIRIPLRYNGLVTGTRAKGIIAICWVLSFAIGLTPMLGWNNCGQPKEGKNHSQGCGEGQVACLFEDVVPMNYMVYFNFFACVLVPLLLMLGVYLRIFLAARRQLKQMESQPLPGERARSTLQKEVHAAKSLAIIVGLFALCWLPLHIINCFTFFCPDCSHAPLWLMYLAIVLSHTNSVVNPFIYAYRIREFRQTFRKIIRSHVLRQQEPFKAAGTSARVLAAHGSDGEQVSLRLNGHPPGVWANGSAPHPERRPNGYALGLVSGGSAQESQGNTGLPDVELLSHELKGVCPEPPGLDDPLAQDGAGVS
# Summary of the method: as §1
# [1] = biological target: T3, endogenous human A2A receptor (Homo sapiens, UniProt P29274); experiment: Human T cell assay, endogenous A2A receptor, cAMP quantification
# T3 construct: The endogenous functional activity of the Gs-coupled human A2A receptor was measured in T cells; endogenous in cells; host or cells: human pan T cells isolated from PBMC of fresh whole blood
# T3 sequence (P29274 whole entry): as above
# Experimental: The endogenous functional activity of the Gs-coupled human A2A receptor was measured in T cells, where this receptor is highly expressed. Determination of receptor activity was done by quantification of cAMP, which is a second messenger for adenosine receptors.
# In short, human pan T cells were isolated from human PBMC (MACS Pan T Cell Isolation Kit, Miltenyi Biotec) that have been derived from fresh whole blood. The T cells were seeded in 384-well microtiter plates and treated with test compounds. […] Finally, HTRF reagents (cAMP Femto Kit, CisBio) were added to the wells, and after 1 h cellular cAMP levels were determined using the ENVISION (Perkin Elmer) plate reader.
# The obtained raw data were normalized against the inhibitor control and the neutral control (DMSO) and the normalized data were fitted using Genedata Screener software.
IC50 (human A2B receptors) [nM],IC50 (Human T cell) [nM],IC50 (mouse Pan T cells) [nM],IC50 (human A2A receptors) [nM],IC50 [1] [nM],SMILES
< 100,< 100,< 1000,< 100,< 100,"O=C(c1cc2c(cn1)c(Nc1ccc(F)cc1)nn2CC(F)(F)F)N1CCCOCC1 [Compound 10, [3-(4-fluoroanilino)-1-(2,2,2-trifluoroethyl)pyrazolo[4,3-c]pyridin-6-yl]-(1,4-oxazepan-4-yl)methanone]"
< 100,–,–,< 100,–,"O=C(c1cc2c(cn1)c(Nc1cc(F)ccn1)nn2CC(F)(F)F)N1CCC(O)CC1 [Compound 111, [3-[(4-fluoro-2-pyridyl)amino]-1-(2,2,2-trifluoroethyl)pyrazolo[4,3-c]pyridin-6-yl]-(4-hydroxypiperidin-1-yl)methanone]"
< 100,–,–,< 100,–,"CC1(O)CCN(C(=O)c2cc3c(cn2)c(Nc2cc(F)ccn2)nn3CC(F)(F)F)CC1 [Compound 112, [3-(4-Fluoro-pyridin-2-ylamino)-1-(2,2,2-trifluoro-ethyl)-1H-pyrazolo[4,3-c]pyridin-6-yl]-(4-hydroxy-4-methyl-piperidin-1-yl)-methanone]"
< 100,–,–,< 100,–,"CCC1(O)CCN(C(=O)c2cc3c(cn2)c(Nc2cc(F)ccn2)nn3CC(F)(F)F)CC1 [Compound 113, [3-(4-Fluoro-pyridin-2-ylamino)-1-(2,2,2-trifluoro-ethyl)-1H-pyrazolo[4,3-c]pyridin-6-yl]-(4-ethyl-4-hydroxypiperidin-1-yl)-methanone]"
< 100,–,–,< 100,–,"CC(C)C1(O)CCN(C(=O)c2cc3c(cn2)c(Nc2cc(F)ccn2)nn3CC(F)(F)F)CC1 [Compound 114, [3-(4-Fluoro-pyridin-2-ylamino)-1-(2,2,2-trifluoro-ethyl)-1H-pyrazolo[4,3-c]pyridin-6-yl]-(4-isopropyl-4-hydroxypiperidin-1-yl)-methanone]"
< 100,–,–,< 100,–,"O=C(c1cc2c(cn1)c(Nc1cc(F)ccn1)nn2CC(F)(F)F)N1CCC(O)(C2CC2)CC1 [Compound 115, [3-(4-Fluoro-pyridin-2-ylamino)-1-(2,2,2-trifluoro-ethyl)-1H-pyrazolo[4,3-c]pyridin-6-yl]-(4-cyclopropyl-4-hydroxypiperidin-1-yl)-methanone]"
< 100,–,–,< 100,–,"O=C(c1cc2c(cn1)c(Nc1cc(F)ccn1)nn2CC(F)(F)F)N1CCC(F)CC1 [Compound 116, (4-Fluoro-piperidin-1-yl)-[3-(4-fluoro-pyridin-2-ylamino)-1-(2,2,2-trifluoro-ethyl)-1H-pyrazolo[4,3-c]pyridin-6-yl]-methanone]"
< 100,–,–,< 100,–,"O=C(c1cc2c(cn1)c(Nc1cc(F)ccn1)nn2CC(F)(F)F)N1CCC[C@H](O)C1 [Compound 117, [(3S)-3-hydroxy-piperidin-1-yl]-[3-(4-fluoro-pyridin-2-ylamino)-1-(2,2,2-trifluoro-ethyl)-1H-pyrazolo[4,3-c]pyridin-6-yl]methanone]"
< 1000,–,–,< 100,–,[2H]C1([2H])COCCN(C(=O)c2cc3c(cn2)c(Nc2cnccn2)nn3CC(F)(F)F)C1 [Compound 121]
< 100,–,–,< 100,–,"O=C(c1cc2c(cn1)c(Nc1cnccn1)nn2CC(F)(F)F)N1CCOC[C@@H](F)C1 [Compound 122, [(6S)-6-fluoro-1,4-oxazepan-4-yl]-[3-(pyrazin-2ylamino)-1-(2,2,2-trifluoro-ethyl)-1H-pyrazolo[4,3-c]pyridin-6-yl]-methanone]"
< 1000,–,–,< 1000,–,"CC1(O)CCN(C(=O)c2cc3c(cn2)c(Nc2cnccn2)nn3CC(F)(F)F)CC1 [Compound 123, [3-(pyrazin-2ylamino)-1-(2,2,2-trifluoro-ethyl)-1H-pyrazolo[4,3-c]pyridin-6-yl]-(4-hydroxy-4-methyl-piperidin-1-yl)-methanone]"
< 1000,–,–,< 100,–,"O=C(c1cc2c(cn1)c(Nc1cnccn1)nn2CC(F)(F)F)N1CCC(F)CC1 [Compound 124, [3-(pyrazin-2ylamino)-1-(2,2,2-trifluoro-ethyl)-1H-pyrazolo[4,3-c]pyridin-6-yl]-(4-fluoro-piperidin-1-yl)-methanone]"
< 1000,–,–,< 100,–,"CC(C)(O)C[C@H]1CCCN1C(=O)c1cc2c(cn1)c(Nc1ccc(F)cn1)nn2CC(F)(F)F [Compound 125, [3-[(5-fluoro-2-pyridyl)amino]-1-(2,2,2-trifluoroethyl)pyrazolo[4,3-c]pyridin-6-yl]-[(2R)-2-(2-hydroxy-2-methyl-propyl)pyrrolidin-1-yl]methanone]"

SMILES,IC50 (human A2B receptors) [nM],IC50 (Human T cell) [nM],IC50 (mouse Pan T cells) [nM],IC50 (human A2A receptors) [nM],IC50 [1] [nM]
"O=C(c1cc2c(cn1)c(Nc1cc(F)ccn1)nn2CC(F)(F)F)N1[C@@H]2CC[C@H]1C[C@@H](O)C2 [Compound 120, [3-[(4-fluoro-2-pyridyl)amino]-1-(2,2,2-trifluoroethyl)pyrazolo[4,3-c]pyridin-6-yl]-(3-endo-hydroxy-8-azabicyclo[3.2.1]octan-8-yl)methanone]",< 100,–,–,< 100,–
"O=C(c1cc2c(cn1)c(Nc1ccccn1)nn2CC(F)(F)F)N1[C@@H]2CC[C@H]1C[C@@H](O)C2 [Compound 127, (3-endo-hydroxy-8-azabicyclo[3.2.1]octan-8-yl)-[3-(2-pyridylamino)-1-(2,2,2-trifluoroethyl)pyrazolo[4,3-c]pyridin-6-yl]methanone]",< 100,–,–,< 100,–
